Measurements published in PubChem BioAssay AID2060599 (Molecular Pharmacology Branch, DTP, NCI, 2025).
pIC50: −log10 of the molar value.
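Further: spheroids exposed to the agents for seven days before readout.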

What follows are compounds tested on 817829-284-R-J1-PDC complex spheroids, viability (assay: Anticancer human tumor 817829-284-R-J1-PDC patient-derived colon adenocarcinoma cell line growth inhibition [CLK]). Conditions: curve of first compound; second compound 0.0316 µM.
From the text: A high-throughput screen of multi-cell type tumor spheroids was designed to identify active combinations of […] and targeted small molecules. Complex spheroids include a stromal component modeled by human endothelial cells (HUVEC) and fibroblasts modeled by human mesenchymal stem cells (MSCs). The concentration ranges selected for each drug and investigational agent were based upon clinically achievable concentrations if the clinical Cmax of the agent was known.
Compounds. The drugs and investigational agents: cirtuvivint (SM08502; NSC835563), CC-671 (NSC850746), vemurafenib (NSC761431), tapotoclax (NSC804041), sotorasib (NSC818433), adagrasib (NSC831453), MRTX-1133 (NSC836407), BAY2416964 (NSC825713), copanlisib (NSC816437), inavolisib (NSC800729), abemaciclib (NSC768073), osimertinib (NSC779217), entinostat (NSC756642), eltanexor (KPT-8602, NSC794443), venetoclax (NSC766270), ceralasertib (NSC777638), bortezomib (NSC756655), olaparib (NSC753686), talazoparib (NSC767125), alisertib (NSC759677), peposertib (NSC802822), gemcitabine (NSC613327), 5-fluorouracil (NSC19893), SN-38 (NSC673596), oxaliplatin (NSC266046), paclitaxel (NSC125973), and doxorubicin (NSC123127), were obtained from the National Cancer Institute (NCI) Developmental Therapeutics Program Chemical Repository. The FDA-approved anticancer drug set is available from the Developmental Therapeutics Program at https://dtp.cancer.gov/organization/dscb/obtaining/available plates.htm. […] The stock solutions were prepared in dimethyl sulfoxide (DMSO, Sigma-Aldrich, St. Louis, MO, cat. D2650), except for the platinum complexes which were prepared in saline (Quality Biological, Gaithersburg, MD, cat. 114-055-101), at 800-fold the tested concentration and stored at -70 degrees C prior to their use. All drugs and investigational agents were tested over a range starting from a high concentration at or near the clinical Cmax and decreasing in half-log increments. If the clinical Cmax for an agent had not been determined, the highest concentration tested was 10 microM.
Cell Culture. All cells were maintained in an incubator at 37 degrees C and 5% CO2 with 95% humidity. The PDC lines were cultured according to standard operating procedures established by the NCI PDMR. Briefly, all PDCs were thawed and cultured in Matrigel-coated flasks prepared with a working solution of 1X Ham's F-12 nutrient mix, without supplementation (Invitrogen, Waltham, MA, cat. 11765054), 100 U/mL penicillin-streptomycin (Invitrogen, cat. 15140122), and 2.5% Matrigel (Corning Inc., Corning, NY, cat. 354248) for the first three passages. The 947758-054-R-J2-PDC line was cultured in 6B/Colon 1A media, which includes advanced DMEM/F-12 (Thermo Fisher Scientific, cat. 12634028), 10 mM HEPES (Thermo Fisher Scientific, cat. 15630080), 1X GlutaMAX supplement (Thermo Fisher Scientific, cat. 35050061), 0.1 mg/mL primocin (InvivoGen, cat. ant-pm-2), 10% defined fetal bovine serum, heat inactivated (HyClone Laboratories Inc., cat. SH30070.03HI), 1.25 mM N-Acetyl-L-cysteine (Sigma-Aldrich, cat. A9165), 10 mM nicotinamide (Sigma-Aldrich, cat. N0636), 1X B-27 supplement (Thermo Fisher Scientific, cat. 17504044), 1X N-2 supplement (Thermo Fisher Scientific, cat. 17502048), and 10 microM Y-27632 dihydrochloride (Tocris Bioscience, cat. 1254). The 876862-298-R-J1-PDC was cultured in 6E media, which includes all 6B/Colon 1A media components plus 50% L-WRN conditioned media (ATCC, cat. CRL-3276), 50 ng/mL recombinant human EGF recombinant protein (hEGF; Thermo Fisher Scientific, cat. PHG0311), 10 ng/mL recombinant human fibroblast growth factor 10 (hGFG-10; PeproTech, cat. 100-26), 1 ng/mL recombinant human fibroblast growth factor 2 (hFGF-2; PeproTech, cat. 100-18B), and 1 µM prostaglandin E2 (PGE2; Tocris, cat. 2296). The 227483-062-R1-J1-PDC line was cultured in Panc media, containing all 6E components except hFGF-2, with the addition of 500 nM SB-431542 (Selleckchem, cat. S1067) and 10 nM gastrin (Tocris, cat. 3006). […]
`C=C(F)C(=O)N1CCN(c2nc(OCC3CCCN3C)nc3c2CCN(c2cccc4cccc(Cl)c24)C3)CC1CC#N` (stereo unspecified) + CN1CCN(c2cc(C(=O)Nc3cc4cc(-c5cnn(C)c5)ccc4cn3)ccn2)CC1 was tested, and the pIC50 was 5.80.
In the case of `C=CC(=O)N1CCN(c2nc(=O)n(-c3c(C)ccnc3C(C)C)c3nc(-c4c(O)cccc4F)c(F)cc23)C(C)C1` (stereo unspecified) + CN1CCN(c2cc(C(=O)Nc3cc4cc(-c5cnn(C)c5)ccc4cn3)ccn2)CC1, the pIC50 was 5.51.
`COC1C=CCC(C)C(C)S(=O)(=O)NC(=O)c2ccc3c(c2)N(CC2CCC21)CC1(CCCc2cc(Cl)ccc21)CO3` (stereo unspecified) + CN1CCN(c2cc(C(=O)Nc3cc4cc(-c5cnn(C)c5)ccc4cn3)ccn2)CC1 showed a pIC50 of 5.85.

Same assay, conditions: curve of first compound; second compound 0.1 µM
For `C=C(F)C(=O)N1CCN(c2nc(OCC3CCCN3C)nc3c2CCN(c2cccc4cccc(Cl)c24)C3)CC1CC#N` (stereo unspecified) + CN1CCN(c2cc(C(=O)Nc3cc4cc(-c5cnn(C)c5)ccc4cn3)ccn2)CC1, the pIC50 was over 7.50.
`C=CC(=O)N1CCN(c2nc(=O)n(-c3c(C)ccnc3C(C)C)c3nc(-c4c(O)cccc4F)c(F)cc23)C(C)C1` (stereo unspecified) + CN1CCN(c2cc(C(=O)Nc3cc4cc(-c5cnn(C)c5)ccc4cn3)ccn2)CC1 showed a pIC50 of over 7.50.
Work on `COC1C=CCC(C)C(C)S(=O)(=O)NC(=O)c2ccc3c(c2)N(CC2CCC21)CC1(CCCc2cc(Cl)ccc21)CO3` (stereo unspecified) + CN1CCN(c2cc(C(=O)Nc3cc4cc(-c5cnn(C)c5)ccc4cn3)ccn2)CC1 yielded a pIC50 of over 7.50.

Same assay, conditions: curve of first compound; second compound 0.316 µM
Compound `C=C(F)C(=O)N1CCN(c2nc(OCC3CCCN3C)nc3c2CCN(c2cccc4cccc(Cl)c24)C3)CC1CC#N` (stereo unspecified) + CN1CCN(c2cc(C(=O)Nc3cc4cc(-c5cnn(C)c5)ccc4cn3)ccn2)CC1 has a pIC50 of over 7.50.
Work on `C=CC(=O)N1CCN(c2nc(=O)n(-c3c(C)ccnc3C(C)C)c3nc(-c4c(O)cccc4F)c(F)cc23)C(C)C1` (stereo unspecified) + CN1CCN(c2cc(C(=O)Nc3cc4cc(-c5cnn(C)c5)ccc4cn3)ccn2)CC1 yielded a pIC50 of over 7.50.
With `COC1C=CCC(C)C(C)S(=O)(=O)NC(=O)c2ccc3c(c2)N(CC2CCC21)CC1(CCCc2cc(Cl)ccc21)CO3` (stereo unspecified) + CN1CCN(c2cc(C(=O)Nc3cc4cc(-c5cnn(C)c5)ccc4cn3)ccn2)CC1 the pIC50 was over 7.50.

Same assay, conditions: curve of first compound; second compound 1 µM
`C=C(F)C(=O)N1CCN(c2nc(OCC3CCCN3C)nc3c2CCN(c2cccc4cccc(Cl)c24)C3)CC1CC#N` (stereo unspecified) + CN1CCN(c2cc(C(=O)Nc3cc4cc(-c5cnn(C)c5)ccc4cn3)ccn2)CC1 showed a pIC50 of over 7.50.
In the case of `C=CC(=O)N1CCN(c2nc(=O)n(-c3c(C)ccnc3C(C)C)c3nc(-c4c(O)cccc4F)c(F)cc23)C(C)C1` (stereo unspecified) + CN1CCN(c2cc(C(=O)Nc3cc4cc(-c5cnn(C)c5)ccc4cn3)ccn2)CC1, the pIC50 was over 7.50.
Compound `COC1C=CCC(C)C(C)S(=O)(=O)NC(=O)c2ccc3c(c2)N(CC2CCC21)CC1(CCCc2cc(Cl)ccc21)CO3` (stereo unspecified) + CN1CCN(c2cc(C(=O)Nc3cc4cc(-c5cnn(C)c5)ccc4cn3)ccn2)CC1 has a pIC50 of over 7.50.

Same assay, conditions: curve of first compound; second compound 3.16 µM
Work on `C=C(F)C(=O)N1CCN(c2nc(OCC3CCCN3C)nc3c2CCN(c2cccc4cccc(Cl)c24)C3)CC1CC#N` (stereo unspecified) + CN1CCN(c2cc(C(=O)Nc3cc4cc(-c5cnn(C)c5)ccc4cn3)ccn2)CC1 yielded a pIC50 of over 7.50.
`C=CC(=O)N1CCN(c2nc(=O)n(-c3c(C)ccnc3C(C)C)c3nc(-c4c(O)cccc4F)c(F)cc23)C(C)C1` (stereo unspecified) + CN1CCN(c2cc(C(=O)Nc3cc4cc(-c5cnn(C)c5)ccc4cn3)ccn2)CC1 was tested, and the pIC50 was over 7.50.
`COC1C=CCC(C)C(C)S(=O)(=O)NC(=O)c2ccc3c(c2)N(CC2CCC21)CC1(CCCc2cc(Cl)ccc21)CO3` (stereo unspecified) + CN1CCN(c2cc(C(=O)Nc3cc4cc(-c5cnn(C)c5)ccc4cn3)ccn2)CC1 was tested, and the pIC50 was over 7.50.

Same assay, conditions: curve of first compound; second compound 10 µM
`C=C(F)C(=O)N1CCN(c2nc(OCC3CCCN3C)nc3c2CCN(c2cccc4cccc(Cl)c24)C3)CC1CC#N` (stereo unspecified) + CN1CCN(c2cc(C(=O)Nc3cc4cc(-c5cnn(C)c5)ccc4cn3)ccn2)CC1 gave a pIC50 of over 7.50.
Compound `C=CC(=O)N1CCN(c2nc(=O)n(-c3c(C)ccnc3C(C)C)c3nc(-c4c(O)cccc4F)c(F)cc23)C(C)C1` (stereo unspecified) + CN1CCN(c2cc(C(=O)Nc3cc4cc(-c5cnn(C)c5)ccc4cn3)ccn2)CC1 has a pIC50 of over 7.50.
Work on `COC1C=CCC(C)C(C)S(=O)(=O)NC(=O)c2ccc3c(c2)N(CC2CCC21)CC1(CCCc2cc(Cl)ccc21)CO3` (stereo unspecified) + CN1CCN(c2cc(C(=O)Nc3cc4cc(-c5cnn(C)c5)ccc4cn3)ccn2)CC1 yielded a pIC50 of over 7.50.

Same assay, conditions: second compound 0.0316 µM; first compound 0.0316 µM; stronger effect = lower value
For `C=C(F)C(=O)N1CCN(c2nc(OCC3CCCN3C)nc3c2CCN(c2cccc4cccc(Cl)c24)C3)CC1CC#N` (stereo unspecified) + CN1CCN(c2cc(C(=O)Nc3cc4cc(-c5cnn(C)c5)ccc4cn3)ccn2)CC1, the viability, T/C was 79.5%.
`C=CC(=O)N1CCN(c2nc(=O)n(-c3c(C)ccnc3C(C)C)c3nc(-c4c(O)cccc4F)c(F)cc23)C(C)C1` (stereo unspecified) + CN1CCN(c2cc(C(=O)Nc3cc4cc(-c5cnn(C)c5)ccc4cn3)ccn2)CC1 gave a viability, T/C of 75.7%.
With `COC1C=CCC(C)C(C)S(=O)(=O)NC(=O)c2ccc3c(c2)N(CC2CCC21)CC1(CCCc2cc(Cl)ccc21)CO3` (stereo unspecified) + CN1CCN(c2cc(C(=O)Nc3cc4cc(-c5cnn(C)c5)ccc4cn3)ccn2)CC1 the viability, T/C was 52.5%.

Same assay, conditions: second compound 0.0316 µM; first compound 0.1 µM; stronger effect = lower value
`C=C(F)C(=O)N1CCN(c2nc(OCC3CCCN3C)nc3c2CCN(c2cccc4cccc(Cl)c24)C3)CC1CC#N` (stereo unspecified) + CN1CCN(c2cc(C(=O)Nc3cc4cc(-c5cnn(C)c5)ccc4cn3)ccn2)CC1 showed a viability, T/C of 71.8%.
`C=CC(=O)N1CCN(c2nc(=O)n(-c3c(C)ccnc3C(C)C)c3nc(-c4c(O)cccc4F)c(F)cc23)C(C)C1` (stereo unspecified) + CN1CCN(c2cc(C(=O)Nc3cc4cc(-c5cnn(C)c5)ccc4cn3)ccn2)CC1 was tested, and the viability, T/C was 70.6%.
Work on `COC1C=CCC(C)C(C)S(=O)(=O)NC(=O)c2ccc3c(c2)N(CC2CCC21)CC1(CCCc2cc(Cl)ccc21)CO3` (stereo unspecified) + CN1CCN(c2cc(C(=O)Nc3cc4cc(-c5cnn(C)c5)ccc4cn3)ccn2)CC1 yielded a viability, T/C of 70%.

Same assay, conditions: second compound 0.0316 µM; first compound 0.316 µM; stronger effect = lower value
`C=C(F)C(=O)N1CCN(c2nc(OCC3CCCN3C)nc3c2CCN(c2cccc4cccc(Cl)c24)C3)CC1CC#N` (stereo unspecified) + CN1CCN(c2cc(C(=O)Nc3cc4cc(-c5cnn(C)c5)ccc4cn3)ccn2)CC1 gave a viability, T/C of 63.4%.
With `C=CC(=O)N1CCN(c2nc(=O)n(-c3c(C)ccnc3C(C)C)c3nc(-c4c(O)cccc4F)c(F)cc23)C(C)C1` (stereo unspecified) + CN1CCN(c2cc(C(=O)Nc3cc4cc(-c5cnn(C)c5)ccc4cn3)ccn2)CC1 the viability, T/C was 60.9%.
Work on `COC1C=CCC(C)C(C)S(=O)(=O)NC(=O)c2ccc3c(c2)N(CC2CCC21)CC1(CCCc2cc(Cl)ccc21)CO3` (stereo unspecified) + CN1CCN(c2cc(C(=O)Nc3cc4cc(-c5cnn(C)c5)ccc4cn3)ccn2)CC1 yielded a viability, T/C of 51.2%.

Same assay, conditions: second compound 0.0316 µM; first compound 1 µM; stronger effect = lower value
Compound `C=C(F)C(=O)N1CCN(c2nc(OCC3CCCN3C)nc3c2CCN(c2cccc4cccc(Cl)c24)C3)CC1CC#N` (stereo unspecified) + CN1CCN(c2cc(C(=O)Nc3cc4cc(-c5cnn(C)c5)ccc4cn3)ccn2)CC1 has a viability, T/C of 79.5%.
Compound `C=CC(=O)N1CCN(c2nc(=O)n(-c3c(C)ccnc3C(C)C)c3nc(-c4c(O)cccc4F)c(F)cc23)C(C)C1` (stereo unspecified) + CN1CCN(c2cc(C(=O)Nc3cc4cc(-c5cnn(C)c5)ccc4cn3)ccn2)CC1 has a viability, T/C of 76.9%.
`COC1C=CCC(C)C(C)S(=O)(=O)NC(=O)c2ccc3c(c2)N(CC2CCC21)CC1(CCCc2cc(Cl)ccc21)CO3` (stereo unspecified) + CN1CCN(c2cc(C(=O)Nc3cc4cc(-c5cnn(C)c5)ccc4cn3)ccn2)CC1 gave a viability, T/C of 63.3%.

Same assay, conditions: second compound 0.0316 µM; first compound 3.16 µM; stronger effect = lower value
`C=C(F)C(=O)N1CCN(c2nc(OCC3CCCN3C)nc3c2CCN(c2cccc4cccc(Cl)c24)C3)CC1CC#N` (stereo unspecified) + CN1CCN(c2cc(C(=O)Nc3cc4cc(-c5cnn(C)c5)ccc4cn3)ccn2)CC1 showed a viability, T/C of 16.2%.
